Values quoted from earlier work, collected in US20220267753A1, “RATIONAL THERAPEUTIC TARGETING OF ONCOGENIC IMMUNE SIGNALING STATES IN MYELOID MALIGNANCIES VIA THE UBIQUITIN CONJUGATING ENZYME UBE2N” (CHILDREN'S HOSPITAL MEDICAL CENTER, priority 2019, published 2022).

Molecular target: T1, UBE2N (Homo sapiens, UniProt P61088)
T1 sequence (P61088 1-152): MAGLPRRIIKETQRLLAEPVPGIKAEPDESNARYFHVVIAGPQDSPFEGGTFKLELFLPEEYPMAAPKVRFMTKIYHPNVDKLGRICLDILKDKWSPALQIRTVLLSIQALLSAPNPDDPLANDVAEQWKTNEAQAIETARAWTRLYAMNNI
Conditions: cited from earlier work; for inhibition of UBE2N by covalent reaction with Cys-87: reference [16]; for selectivity among cysteine-containing ubiquitin enzymes: references [23-25]

Cc1ccc(S(=O)(=O)/C=C/C#N)cc1 [BAY11-7082]
inhibition of UBE2N by covalent reaction with Cys-87: irreversible inhibition of UBE2N
selectivity among cysteine-containing ubiquitin enzymes: non-selective inhibitors

Cc1ccc(S(=O)(=O)c2ccc([N+](=O)[O-])o2)cc1 [NSC697923, 2-(4-methylphenyl)sulfonyl-5-nitrofuran]
inhibition of UBE2N by covalent reaction with Cys-87: irreversible inhibition of UBE2N
selectivity among cysteine-containing ubiquitin enzymes: non-selective inhibitors
